In patent US20240254114A1, “PREPARATION OF FUSED AZOLE DERIVATIVES AS NOVEL DIACYLGLYCERIDE 0-ACYLTRANSFERASE 2 INHIBITORS” (Merck Sharp & Dohme LLC, priority 2022, published 2024):

target: human DGAT2 (Homo sapiens (Human), UniProt Q96PD7); experiment: DGAT2 Enzymatic Activity Assay; settings: Human DGAT2 IC50, hDGAT2 membrane prep from Sf-9 cells; 13C18-triolein product by LC/MS/MS
Sequence (Q96PD7 whole entry): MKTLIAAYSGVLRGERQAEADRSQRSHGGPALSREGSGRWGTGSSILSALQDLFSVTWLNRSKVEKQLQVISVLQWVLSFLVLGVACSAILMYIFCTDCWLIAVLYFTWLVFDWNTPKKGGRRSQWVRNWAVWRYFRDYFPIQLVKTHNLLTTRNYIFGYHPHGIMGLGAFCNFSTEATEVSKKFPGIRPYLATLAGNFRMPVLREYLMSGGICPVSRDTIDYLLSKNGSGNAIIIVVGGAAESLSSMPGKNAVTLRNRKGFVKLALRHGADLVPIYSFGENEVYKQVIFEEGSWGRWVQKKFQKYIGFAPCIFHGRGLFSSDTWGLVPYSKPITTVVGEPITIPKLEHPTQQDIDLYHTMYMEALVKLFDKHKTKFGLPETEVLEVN
Procedure: Sf-9 insect cells were maintained in Grace's insect cell culture medium with 10% heated-inactivated fetal bovine serum, 1% Pluronic F-68 and 0.14 μg/ml Kanamycine sulfate at 27° C. in a shaker incubator. After infection with untagged baculovirus expressing human DGAT2 (hDGAT2) at multiplicity of infection (MOI) 3 for 48 hours, cells were harvested. Cell pellets were suspended in buffer containing 10 mM Tris-HCl pH 7.5, 1 mM EDTA, 250 mM sucrose and Complete Protease Inhibitor Cocktail (Sigma Aldrich), and sonicated on ice. Cell debris were removed by centrifugation at 2000×g for 15 minutes. Membrane fractions were isolated by ultracentrifugation (100,000×g), resuspended in the same buffer, and frozen (−80° C.) for later use. The protein concentration was determined with the Pierce™ BCA Protein Assay Kit (Thermo Fisher Scientific).
LC/MS/MS analyses were performed using Thermal Fisher's LX4-TSQ Vantage system. This system consists of an Agilent binary high-performance liquid chromatography (HPLC) pump and a TSQ Vantage triple quadrupole MS/MS instrument. For each sample, 2 μL samples from the top organic layer of in-plate liquid-liquid extraction were injected onto a Thermo Betabasic C4 column (2.1 mm×20 mm, 5 μm particle size). The samples were then eluted using the following conditions; mobile phase: Isopropanol: acetonitrile/10 mM ammonium formate=50/35/15 (v/v/v), flow rate: 0.8 mL/min, temperature: 25° C. Data was acquired in positive mode using a heated electrospray ionization (HESI) interface. […] The peak area was integrated by Xcalibur Quan software. The ratio between the ^13C18 triolein generated in the reaction and spiked in internal standard ^13C21-triolein was used to generate percentage inhibition and IC50 values. […] DGAT2 activity was determined by measuring the amount of enzymatic product ^13C18-triolein (^13C-1,2,3-Tri(cis-9-octadecenoyl)glycerol) using the membrane prep mentioned above. The assay was carried out in ABgene 384-well assay plates in a final volume of 25 μL at rt.

SMILES	IC50
Cn1c(C(=O)NC2(C)CCS(=O)(=O)CC2)nc2c(Cl)c(Oc3ncc(Cl)cc3OCC(F)(F)F)ccc21 [Example 24, 4-Chloro-5-((5-chloro-3-(2,2,2-trifluoroethoxy)pyridin-2-yl)oxy)-1-methyl-N-(4-methyl-1,1-dioxidotetrahydro-2H-thiopyran-4-yl)-1H-benzo[d]imidazole-2-carboxamide]	89 nM
Cn1c(C(=O)NC2(C)CCS(=O)(=O)CC2)nc2ccc(OCC(CC(F)(F)F)OCC(F)F)nc21 (single isomer, unassigned) [Example 63a, 5-[2-(2,2-difluoroethoxy)-4,4,4-trifluoro-butoxy]-3-methyl-N-(4-methyl-1,1-dioxo-thian-4-yl)imidazo[4,5-b]pyridine-2-carboxamide]	50 nM

Continued, values first:

IC50	SMILES
3.6 nM	CC(C)n1c(C(=O)NC2(C)CCS(=O)(=O)CC2)nc2ccc(Oc3ncc(Cl)cc3OCC(F)F)nc21 [Example 52, 5-((5-chloro-3-(2,2-difluoroethoxy)pyridin-2-yl)oxy)-3-isopropyl-N-(4-methyl-1,1-dioxidotetrahydro-2H-thiopyran-4-yl)-3H-imidazo[4,5-b]pyridine-2-carboxamide]
2.2 nM	Cn1c(C(=O)NC2(C)CCS(=O)(=O)CC2)nc2ccc(Oc3ncc(Cl)cc3OCC(F)(F)F)c(Cl)c21 [Example 23, 7-Chloro-6-((5-chloro-3-(2,2,2-trifluoroethoxy)pyridin-2-yl)oxy)-1-methyl-N-(4-methyl-1,1-dioxidotetrahydro-2H-thiopyran-4-yl)-1H-benzo[d]imidazole-2-carboxamide]
30 nM	Cn1c(C(=O)NC2(C)CCS(=O)(=O)CC2)nc2cnc(OCc3ncc(Cl)cc3OCC(F)F)cc21 [Example 80, 6-((5-Chloro-3-(2,2-difluoroethoxy)pyridin-2-yl)methoxy)-1-methyl-N-(4-methyl-1,1-dioxidotetrahydro-2H-thiopyran-4-yl)-1H-imidazo[4,5-c]pyridine-2-carboxamide]

same assay, conditions: read-out: Human DGAT2 IC50; hDGAT2 membrane prep from Sf-9 cells; 13C18-triolein product by LC/MS/MS

IC50	SMILES
11 nM	Cn1c(C(=O)NC2(C)CS(=O)(=O)C2)nc2cnc(Oc3ncc(Cl)cc3OCC(F)F)cc21 [Example 70, 6-[[5-chloro-3-(2,2-difluoroethoxy)-2-pyridyl]oxy]-1-methyl-N-(3-methyl-1,1-dioxo-thietan-3-yl)imidazo[4,5-c]pyridine-2-carboxamide]
6.9 nM	Cn1c(C(=O)NC2(C)CCS(=O)(=O)CC2)nc2cnc(Oc3ncc(F)cc3OCC(F)F)cc21 [Example 72, 6-[[3-(2,2-difluoroethoxy)-5-fluoro-2-pyridyl]oxy]-1-methyl-N-(4-methyl-1,1-dioxo-thian-4-yl)imidazo[4,5-c]pyridine-2-carboxamide]
79 nM	Cc1cc2nc(C(=O)NC3(C)CCS(=O)(=O)CC3)n(C)c2nc1Oc1ncc(F)cc1OCC(C)(F)F [Example 47, 5-[[3-(2,2-difluoropropoxy)-5-fluoro-2-pyridyl]oxy]-3,6-dimethyl-N-(4-methyl-1,1-dioxo-thian-4-yl)imidazo[4,5-b]pyridine-2-carboxamide]
25 nM	Cc1nc2nc(C(=O)NC3(C)CCS(=O)(=O)CC3)n(C)c2cc1Oc1ncc(F)cc1OCC(F)(F)F [Example 87, 6-[[5-fluoro-3-(2,2,2-trifluoroethoxy)-2-pyridyl]oxy]-1,5-dimethyl-N-(4-methyl-1,1-dioxo-thian-4-yl)imidazo[4,5-b]pyridine-2-carboxamide]
472 nM	O=C(N[C@H]1CCOC1)c1nc2ccc(Oc3ncccc3OCC(F)(F)F)cc2s1 [Example 93, N-[(3S)-tetrahydrofuran-3-yl]-6-[[3-(2,2,2-trifluoroethoxy)-2-pyridyl]oxy]-1,3-benzothiazole-2-carboxamide]
6.3 nM	Cc1cc2nc(C(=O)NC3(C)CCS(=O)(=O)CC3)n(C)c2nc1Oc1ncc(F)cc1OCC(F)(F)F [Example 46, 5-((5-fluoro-3-(2,2,2-trifluoroethoxy)pyridin-2-yl)oxy)-3,6-dimethyl-N-(4-methyl-1,1-dioxido-tetrahydro-2H-thiopyran-4-yl)-3H-imidazo[4,5-b]pyridine-2-carboxamide]
